Holding throughout (assay type): biochemical
In experiment [1] the target is T1, hMeprin α (Homo sapiens, UniProt Q16819).
T1 sequence (Q16819 66-746): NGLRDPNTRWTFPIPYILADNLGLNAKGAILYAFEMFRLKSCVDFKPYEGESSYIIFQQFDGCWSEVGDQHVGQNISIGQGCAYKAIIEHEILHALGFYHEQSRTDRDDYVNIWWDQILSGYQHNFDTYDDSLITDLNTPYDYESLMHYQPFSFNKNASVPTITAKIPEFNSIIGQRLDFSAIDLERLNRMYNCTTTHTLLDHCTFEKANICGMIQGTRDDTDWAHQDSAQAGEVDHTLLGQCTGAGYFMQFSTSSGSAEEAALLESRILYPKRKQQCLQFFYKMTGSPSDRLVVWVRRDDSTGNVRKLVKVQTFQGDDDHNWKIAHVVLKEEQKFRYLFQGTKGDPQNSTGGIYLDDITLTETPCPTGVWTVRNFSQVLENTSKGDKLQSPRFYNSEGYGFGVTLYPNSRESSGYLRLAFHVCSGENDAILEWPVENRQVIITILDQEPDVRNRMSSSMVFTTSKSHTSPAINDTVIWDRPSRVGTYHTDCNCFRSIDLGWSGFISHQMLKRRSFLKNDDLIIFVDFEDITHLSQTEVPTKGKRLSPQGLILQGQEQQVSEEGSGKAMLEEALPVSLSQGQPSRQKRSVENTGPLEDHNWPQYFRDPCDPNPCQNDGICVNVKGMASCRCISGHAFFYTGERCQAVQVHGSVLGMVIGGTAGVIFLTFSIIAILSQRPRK
The experiment in a line: Enzymatic assay, quenched peptide substrate cleavage, method A. The conditions noted are these: geometric mean (geometric SD factor in parentheses), read-out: Meprin alpha IC50. Here is the method: (§1) The determination of enzymatic activity was based on the cleavage of internally quenched peptide substrates. A typical assay of 250 μl total volume measured in black 96 well plates consisted of 100 μl buffer, 50 μl enzyme at a final concentration of 5e-8 M to 2e-10 M, 50 μl substrate (0.15 to 80 μM, in buffer, 0.5% DMSO) and 50 μl inhibitor solution (in buffer, 1% DMSO). In case of 125 μl assay volume (black 96 half area well plates) all volumes were cut in half. Enzymatic activity of ADAMs was measured in 384 well plates with 60 μl total assay volume consisting of 20 μl inhibitor, 20 μl buffer, 10 μl enzyme and 10 μl substrate.
(§2) Based on method B Ki^(app) values were determined using Morrison's equation. All measurements were performed using a fluorescence plate reader (FLUOSTAR OPTIMA, BMG Labtech) at 30° C. The kinetic parameters were determined at least in duplicates on separate days. The excitation/emission wavelength was 340/420 nm. The kinetic data was evaluated using GRAFIT software (version 7.0.3, Erithacus Software).

Experiment [2] deals with T2, hMeprin β (Homo sapiens, UniProt Q16820).
T2 sequence (Q16820 62-701): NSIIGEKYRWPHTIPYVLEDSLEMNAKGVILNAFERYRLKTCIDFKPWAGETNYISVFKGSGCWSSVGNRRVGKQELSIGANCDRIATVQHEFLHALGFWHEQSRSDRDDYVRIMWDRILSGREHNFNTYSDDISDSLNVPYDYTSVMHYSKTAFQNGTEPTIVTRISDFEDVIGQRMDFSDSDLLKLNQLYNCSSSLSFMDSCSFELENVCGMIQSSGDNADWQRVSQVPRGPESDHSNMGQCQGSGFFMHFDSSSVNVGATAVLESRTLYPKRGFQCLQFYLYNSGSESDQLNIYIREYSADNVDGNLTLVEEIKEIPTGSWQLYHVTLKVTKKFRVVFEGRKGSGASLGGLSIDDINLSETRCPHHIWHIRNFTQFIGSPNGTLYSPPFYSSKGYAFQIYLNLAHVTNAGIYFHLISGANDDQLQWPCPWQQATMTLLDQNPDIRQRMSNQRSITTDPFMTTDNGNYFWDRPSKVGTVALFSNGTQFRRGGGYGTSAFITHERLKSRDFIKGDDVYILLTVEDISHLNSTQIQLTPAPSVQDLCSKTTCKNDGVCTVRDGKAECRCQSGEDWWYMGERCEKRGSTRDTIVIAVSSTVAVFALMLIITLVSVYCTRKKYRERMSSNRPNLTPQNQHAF
Described as above. As to conditions: geometric mean (geometric SD factor in parentheses), read-out: Meprin beta IC50. Here is the method: as §1, §2

Experiment [3] deals with T1, hMeprin α. The experiment in a line: Enzymatic assay, quenched peptide substrate cleavage, method B. As to conditions: geometric mean (geometric SD factor in parentheses). On the procedure: as §1, §2
Experiment [4] concerns the target T2, hMeprin β. The experiment is described as above. The conditions noted are these: geometric mean (geometric SD factor in parentheses). On the procedure: as §1, §2
The target in experiment [5] is T3, hMMP 9 (Homo sapiens, UniProt P14780).
T3 construct: purchased R&D systems
The experiment is described as follows: Residual enzyme activity of other metalloproteases. As to conditions: read-out: Residual enzyme activity MMP9. On the procedure:
as §1
MMPs were activated prior to measurement by APMA (p-aminophenylmercuric acetate) treatment according to manufacturer's instructions (R&D systems).

The target in experiment [6] is T4, hADAM 10 (Homo sapiens, UniProt O14672).
T4 construct: purchased R&D systems
T4 sequence (O14672 214-748): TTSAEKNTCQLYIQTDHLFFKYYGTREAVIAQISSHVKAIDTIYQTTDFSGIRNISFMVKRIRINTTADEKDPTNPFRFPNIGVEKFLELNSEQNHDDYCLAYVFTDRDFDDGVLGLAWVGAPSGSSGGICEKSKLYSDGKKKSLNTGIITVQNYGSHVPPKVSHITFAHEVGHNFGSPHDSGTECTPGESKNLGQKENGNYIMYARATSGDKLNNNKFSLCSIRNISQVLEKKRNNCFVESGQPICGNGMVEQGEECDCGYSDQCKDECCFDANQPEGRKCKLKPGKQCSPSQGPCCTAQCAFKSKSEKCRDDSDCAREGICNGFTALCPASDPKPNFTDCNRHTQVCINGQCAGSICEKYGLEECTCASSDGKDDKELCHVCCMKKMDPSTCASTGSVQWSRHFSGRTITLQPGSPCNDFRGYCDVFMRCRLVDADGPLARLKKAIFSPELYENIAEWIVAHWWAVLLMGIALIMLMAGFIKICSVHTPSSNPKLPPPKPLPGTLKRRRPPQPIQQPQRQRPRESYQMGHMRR
The experiment in a line: Residual enzyme activity of other metalloproteases. As to conditions: read-out: Residual enzyme activity ADAM10. On the procedure:
as §1

Experiment [7] has as its target T5, hADAM 17 (Homo sapiens, UniProt P78536).
T5 construct: purchased R&D systems
The experiment in a line: Residual enzyme activity of other metalloproteases. The conditions noted are these: read-out: Residual enzyme activity ADAM17. Here is the method:
as §1

The structures appear in SMILES notation.

T5 sequence (P78536 215-824): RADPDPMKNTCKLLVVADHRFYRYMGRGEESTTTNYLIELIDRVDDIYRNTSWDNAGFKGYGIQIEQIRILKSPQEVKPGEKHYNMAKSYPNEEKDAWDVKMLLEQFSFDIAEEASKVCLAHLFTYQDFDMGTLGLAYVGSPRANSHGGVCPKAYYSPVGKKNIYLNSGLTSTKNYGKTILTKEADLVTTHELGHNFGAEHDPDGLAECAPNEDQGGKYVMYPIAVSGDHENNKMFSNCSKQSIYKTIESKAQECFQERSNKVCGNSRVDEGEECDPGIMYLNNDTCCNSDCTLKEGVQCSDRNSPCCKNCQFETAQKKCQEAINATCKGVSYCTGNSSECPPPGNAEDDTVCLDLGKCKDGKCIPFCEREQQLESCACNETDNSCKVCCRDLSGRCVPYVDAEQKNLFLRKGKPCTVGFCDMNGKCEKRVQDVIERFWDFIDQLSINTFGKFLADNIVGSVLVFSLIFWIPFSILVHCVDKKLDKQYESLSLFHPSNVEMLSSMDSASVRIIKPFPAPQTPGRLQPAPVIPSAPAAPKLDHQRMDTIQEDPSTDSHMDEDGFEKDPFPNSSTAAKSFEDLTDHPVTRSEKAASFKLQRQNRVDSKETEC
T3 sequence (P14780 107-707 limits assumed): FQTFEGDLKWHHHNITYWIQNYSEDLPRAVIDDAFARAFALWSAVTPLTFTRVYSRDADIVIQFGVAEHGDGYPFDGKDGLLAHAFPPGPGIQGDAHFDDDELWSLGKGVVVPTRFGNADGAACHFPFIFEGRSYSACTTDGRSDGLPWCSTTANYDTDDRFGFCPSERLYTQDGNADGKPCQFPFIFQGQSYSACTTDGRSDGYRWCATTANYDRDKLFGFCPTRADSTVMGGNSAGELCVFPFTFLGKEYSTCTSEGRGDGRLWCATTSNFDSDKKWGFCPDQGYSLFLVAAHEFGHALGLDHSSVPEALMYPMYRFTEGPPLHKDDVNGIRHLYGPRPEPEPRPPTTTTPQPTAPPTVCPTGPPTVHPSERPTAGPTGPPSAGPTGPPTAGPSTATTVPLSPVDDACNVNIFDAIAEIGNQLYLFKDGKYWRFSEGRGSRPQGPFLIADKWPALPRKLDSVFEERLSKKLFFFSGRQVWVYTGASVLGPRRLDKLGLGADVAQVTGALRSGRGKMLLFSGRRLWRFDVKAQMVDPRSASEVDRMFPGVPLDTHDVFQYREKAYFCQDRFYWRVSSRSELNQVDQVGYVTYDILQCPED

What is called IC50 is the midpoint of a concentration-inhibition curve. With `O=C(Cn1c(-c2ccccc2)nc2cccnc21)NO` [Example 23, 2-(2-Phenylimidazo[4,5-b]pyridin-3-yl)ethane-hydroxamic acid], the IC50 in experiment [1] was 273 nM; in experiment [2], 4560 nM.
With `O=C(CCn1c(-c2ccccc2)cc2ccccc21)NO` [Example 26, 3-(2-Phenylindol-1-yl)propanehydroxamic acid], the IC50 was 475 nM in experiment [1] and 13400 nM in experiment [2].
Consider `O=C(CNc1c(-c2ccccc2)nc2c(C(=O)O)cccn12)NO` [Example 33, 3-[[2-(Hydroxyamino)-2-oxo-ethyl]amino]-2-phenyl-imidazo[1,2-a]pyridine-8-carboxylic acid], for which the half-inhibitory concentration (IC50) in experiment [1] was 6740 nM; in experiment [2] it was 3100 nM.
For `O=C(CCn1nc(-c2ccccc2)cc1-c1ccccc1)NO` [Example 6, 3-(3,5-Diphenylpyrazol-1-yl)propanehydroxamic acid], the IC50 in experiment [1] was found to be 457 nM; in experiment [2], 15400 nM.
The corresponding values for `O=C(CCn1c(-c2ccccc2)ccc1-c1ccccc1)NO` [Example 10, 3-(2,5-Diphenylpyrrol-1-yl)propanehydroxamic acid] are 727 nM and 15000 nM.
Taken in the same sequence, the figures for `O=C(CCn1c(-c2ccccc2)nnc1-c1ccccc1)NO` [Example 8, 3-(3,5-Diphenyl-1,2,4-triazol-4-yl)propanehydroxamic acid] were 353 nM and 42300 nM.
The corresponding values for `O=C(CNc1c(-c2ccc(C(=O)O)cc2)nc2ccccn12)NO` [Example 30, 4-[3-[[2-(Hydroxyamino)-2-oxo-ethyl]amino]-imidazo[1,2-a]pyridin-2-yl]benzoic acid] are 2280 nM and 176 nM.
On to `O=C(Cc1c2ccccc2nn1-c1ccccc1)NO` [Example 34, 2-(2-Phenylindazol-3-yl)ethanehydroxamic acid], for which the IC50 in experiment [1] stood at 244 nM; in experiment [2] it was 3370 nM.
`O=C(Cn1nc(-c2ccccc2)cc1-c1ccccc1)NO` [Example 5, 2-(3,5-Diphenylpyrazol-1-yl)ethanehydroxamic acid]: the IC50 worked out at 292 nM in experiment [1] and 10500 nM in experiment [2].
The corresponding values for `O=C(Cc1c(-c2ccccc2)[nH]c2ccccc12)NO` [Example 27, 2-(2-Phenyl-1H-indol-3-yl)ethanehydroxamic acid] are 105 nM and 1200 nM.
Taken in the same sequence, the figures for `O=C(Cc1c(-c2ccccc2)ncn1-c1ccccc1)NO` [Example 12, 2-(3,5-Diphenylimidazol-4-yl)ethanehydroxamic acid] were 2 nM and 486 nM.
The corresponding values for `O=C(Cc1c(-c2ccccc2)nn(-c2cccc(C(=O)O)c2)c1-c1ccccc1)NO` [Example 38, 3-[4-[2-(Hydroxyamino)-2-oxo-ethyl]-3,5-diphenyl-pyrazol-1-yl]benzoic acid] are 16 nM and 100 nM.
Take `O=C(Cc1c(-c2ccccc2)nn(-c2ccc(C(=O)O)cc2)c1-c1ccccc1)NO` [Example 37, 4-[4-[2-(Hydroxyamino)-2-oxo-ethyl]-3,5-diphenyl-pyrazol-1-yl]benzoic acid]: the IC50 is 21 nM in experiment [1] and 154 nM in experiment [2].
The corresponding values for `O=C(CNc1c(-c2ccc3c(c2)OCCO3)nc2ccccn12)NO` [Example 32, 2-[[2-(2,3-Dihydro-1,4-benzodioxin-6-yl)imidazo-[1,2-a]pyridin-3-yl]amino]ethanehydroxamic acid] are 655 nM and 3140 nM.
Consider `O=C(Cc1c(-c2ccc3c(c2)OCO3)n[nH]c1-c1ccc2c(c1)OCO2)NO` [Example 57, 2-[3,5-Bis(1,3-benzodioxol-5-yl)-1H-pyrazol-4-yl]ethanehydroxamic acid], for which the Ki in experiment [3] (Morrison's equation, read-out: Meprin alpha Ki(app)) was 0.64 nM; in experiment [4] (Morrison's equation, read-out: Meprin beta Ki(app)), 113 nM. The IC50 was determined as 0.72 nM in experiment [3] (read-out: Meprin alpha IC50) and 119 nM in experiment [4] (read-out: Meprin beta IC50). Further, the remaining activity at 10 µM in experiment [5] (10 μM inhibitor) is 63%; in experiment [6] (10 μM inhibitor), 62%; in experiment [7] (10 μM inhibitor) it was 57%. Besides, the results for the remaining activity at 200 µM in experiment [5] (200 μM inhibitor), in experiment [6] (200 μM inhibitor) and in experiment [7] (200 μM inhibitor) were 10%, 0% and 4%, respectively.

The record behind these values is patent publication US20250388544A1, “HETEROAROMATIC INHIBITORS OF ASTACIN PROTEINASES” (VIVORYON THERAPEUTICS N.V., priority 2019, published 2025).
